Test results: US10670605B2, “Cysteine reactive probes and uses thereof” (The Scripps Research Institute, priority 2015, dated 2020)

Experiments:
Experiment in all cases: Competitive isoTOP-ABPP in situ (fragment-treated cells)
Assay type in all cases: cell-based
[1] = target: cysteines in MDA-MB-231 and Ramos cells (Homo sapiens, UniProt Q8NFF5)
[2] = target: T1, cysteines in MDA-MB-231 and Ramos cells (Homo sapiens, UniProt P05091)
T1 sequence (P05091 18-517): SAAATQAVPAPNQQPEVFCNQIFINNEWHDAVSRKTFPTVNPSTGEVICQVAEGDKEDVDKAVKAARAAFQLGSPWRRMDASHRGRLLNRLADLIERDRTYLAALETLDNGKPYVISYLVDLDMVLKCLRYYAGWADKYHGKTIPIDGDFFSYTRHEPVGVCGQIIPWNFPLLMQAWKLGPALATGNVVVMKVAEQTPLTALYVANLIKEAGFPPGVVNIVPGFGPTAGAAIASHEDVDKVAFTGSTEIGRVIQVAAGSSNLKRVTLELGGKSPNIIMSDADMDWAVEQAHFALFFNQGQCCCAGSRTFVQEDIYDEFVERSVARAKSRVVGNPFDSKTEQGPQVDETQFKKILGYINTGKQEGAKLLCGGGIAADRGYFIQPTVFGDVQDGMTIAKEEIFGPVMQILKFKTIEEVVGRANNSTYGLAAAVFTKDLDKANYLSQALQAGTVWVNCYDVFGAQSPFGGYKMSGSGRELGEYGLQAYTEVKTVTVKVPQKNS

[3] = target: cysteines in MDA-MB-231 and Ramos cells (Homo sapiens, UniProt Q8IU81); conditions: 200 μM, insitu, 231
[4] = target: T2, cysteines in MDA-MB-231 and Ramos cells (Homo sapiens, UniProt Q9C0I1); conditions: 200 μM, insitu
T2 sequence (Q9C0I1 1-747): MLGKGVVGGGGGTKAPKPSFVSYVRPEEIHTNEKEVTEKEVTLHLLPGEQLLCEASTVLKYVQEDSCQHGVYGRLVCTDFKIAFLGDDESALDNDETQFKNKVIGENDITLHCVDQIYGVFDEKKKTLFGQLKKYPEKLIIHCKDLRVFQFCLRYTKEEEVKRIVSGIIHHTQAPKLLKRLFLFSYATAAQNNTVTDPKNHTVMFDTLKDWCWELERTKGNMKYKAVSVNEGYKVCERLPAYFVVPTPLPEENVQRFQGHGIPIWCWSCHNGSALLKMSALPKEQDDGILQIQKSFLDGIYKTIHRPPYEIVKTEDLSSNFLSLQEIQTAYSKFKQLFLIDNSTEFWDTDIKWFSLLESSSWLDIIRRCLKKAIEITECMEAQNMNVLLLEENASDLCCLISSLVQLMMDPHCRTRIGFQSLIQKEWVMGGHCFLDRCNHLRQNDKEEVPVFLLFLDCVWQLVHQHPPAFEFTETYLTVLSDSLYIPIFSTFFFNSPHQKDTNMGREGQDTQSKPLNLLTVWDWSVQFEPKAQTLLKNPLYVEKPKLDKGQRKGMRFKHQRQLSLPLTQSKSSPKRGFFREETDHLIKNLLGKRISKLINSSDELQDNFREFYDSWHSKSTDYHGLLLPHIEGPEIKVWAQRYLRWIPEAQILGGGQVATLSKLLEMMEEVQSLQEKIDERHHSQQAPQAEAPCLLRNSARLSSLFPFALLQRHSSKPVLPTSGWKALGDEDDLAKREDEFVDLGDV

[5] = target: T3, cysteines in MDA-MB-231 and Ramos cells (Homo sapiens, UniProt Q6QNY0); conditions: 200 μM, insitu
T3 sequence (Q6QNY0 1-202): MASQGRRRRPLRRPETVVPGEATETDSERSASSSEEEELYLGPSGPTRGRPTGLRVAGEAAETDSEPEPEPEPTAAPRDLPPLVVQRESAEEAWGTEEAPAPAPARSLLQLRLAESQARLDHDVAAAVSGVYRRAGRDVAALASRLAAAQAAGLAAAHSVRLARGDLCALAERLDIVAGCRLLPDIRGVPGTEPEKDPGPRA

[6] = target: T4, cysteines in MDA-MB-231 and Ramos cells (Homo sapiens, UniProt Q8IZ73); conditions: 200 μM, insitu
T4 sequence (Q8IZ73 1-545): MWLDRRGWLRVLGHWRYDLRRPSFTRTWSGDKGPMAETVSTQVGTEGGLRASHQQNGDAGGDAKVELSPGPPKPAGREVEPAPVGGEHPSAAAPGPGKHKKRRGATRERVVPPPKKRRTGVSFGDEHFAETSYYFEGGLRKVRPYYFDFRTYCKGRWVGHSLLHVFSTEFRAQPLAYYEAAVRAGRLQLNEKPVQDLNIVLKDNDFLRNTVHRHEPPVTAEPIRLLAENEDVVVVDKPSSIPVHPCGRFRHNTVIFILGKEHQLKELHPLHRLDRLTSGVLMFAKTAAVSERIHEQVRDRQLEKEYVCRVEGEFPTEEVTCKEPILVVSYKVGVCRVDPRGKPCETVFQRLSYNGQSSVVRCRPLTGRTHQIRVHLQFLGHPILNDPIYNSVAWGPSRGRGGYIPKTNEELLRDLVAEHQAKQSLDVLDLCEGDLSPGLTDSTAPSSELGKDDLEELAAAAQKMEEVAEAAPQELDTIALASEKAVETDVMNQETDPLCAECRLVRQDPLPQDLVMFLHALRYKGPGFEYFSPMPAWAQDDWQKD

[7] = target: T5, cysteines in MDA-MB-231 and Ramos cells (Homo sapiens, UniProt Q9BTE3); conditions: 200 μM, insitu
T5 sequence (Q9BTE3 1-642): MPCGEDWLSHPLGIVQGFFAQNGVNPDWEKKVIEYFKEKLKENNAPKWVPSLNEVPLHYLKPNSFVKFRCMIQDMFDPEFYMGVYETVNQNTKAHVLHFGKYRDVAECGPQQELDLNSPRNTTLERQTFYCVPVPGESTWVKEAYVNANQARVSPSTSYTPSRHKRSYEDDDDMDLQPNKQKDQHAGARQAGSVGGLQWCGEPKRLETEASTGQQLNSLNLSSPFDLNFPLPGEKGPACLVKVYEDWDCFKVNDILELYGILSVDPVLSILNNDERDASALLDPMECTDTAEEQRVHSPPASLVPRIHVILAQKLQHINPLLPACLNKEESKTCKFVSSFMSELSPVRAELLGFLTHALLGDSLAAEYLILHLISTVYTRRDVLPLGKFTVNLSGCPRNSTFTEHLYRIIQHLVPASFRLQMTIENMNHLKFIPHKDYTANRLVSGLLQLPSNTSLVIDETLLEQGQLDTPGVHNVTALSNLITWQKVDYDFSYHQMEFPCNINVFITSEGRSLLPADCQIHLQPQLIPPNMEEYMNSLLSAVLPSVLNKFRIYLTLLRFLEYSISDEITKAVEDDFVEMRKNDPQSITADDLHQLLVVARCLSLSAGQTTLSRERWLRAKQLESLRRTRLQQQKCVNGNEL

Sequence of cysteines in MDA-MB-231 and Ramos cells (Homo sapiens, UniProt Q8IU81) (Q8IU81 whole entry): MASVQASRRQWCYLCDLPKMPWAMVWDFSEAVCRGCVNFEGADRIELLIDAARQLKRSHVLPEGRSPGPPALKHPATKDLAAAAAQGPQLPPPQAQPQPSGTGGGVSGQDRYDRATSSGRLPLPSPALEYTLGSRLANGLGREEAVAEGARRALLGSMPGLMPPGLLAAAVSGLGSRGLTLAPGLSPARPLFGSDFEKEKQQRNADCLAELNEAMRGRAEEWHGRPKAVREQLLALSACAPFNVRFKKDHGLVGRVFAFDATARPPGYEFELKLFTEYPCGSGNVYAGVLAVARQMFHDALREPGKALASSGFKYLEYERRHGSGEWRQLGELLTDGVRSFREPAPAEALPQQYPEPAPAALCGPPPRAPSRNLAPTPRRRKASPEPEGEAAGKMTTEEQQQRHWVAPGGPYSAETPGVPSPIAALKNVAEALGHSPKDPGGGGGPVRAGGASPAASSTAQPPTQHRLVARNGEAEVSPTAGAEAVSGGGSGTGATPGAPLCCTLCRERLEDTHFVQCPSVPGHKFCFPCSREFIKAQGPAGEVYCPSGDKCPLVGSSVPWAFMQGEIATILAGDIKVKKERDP
Sequence of cysteines in MDA-MB-231 and Ramos cells (Homo sapiens, UniProt Q8NFF5) (Q8NFF5 18-587): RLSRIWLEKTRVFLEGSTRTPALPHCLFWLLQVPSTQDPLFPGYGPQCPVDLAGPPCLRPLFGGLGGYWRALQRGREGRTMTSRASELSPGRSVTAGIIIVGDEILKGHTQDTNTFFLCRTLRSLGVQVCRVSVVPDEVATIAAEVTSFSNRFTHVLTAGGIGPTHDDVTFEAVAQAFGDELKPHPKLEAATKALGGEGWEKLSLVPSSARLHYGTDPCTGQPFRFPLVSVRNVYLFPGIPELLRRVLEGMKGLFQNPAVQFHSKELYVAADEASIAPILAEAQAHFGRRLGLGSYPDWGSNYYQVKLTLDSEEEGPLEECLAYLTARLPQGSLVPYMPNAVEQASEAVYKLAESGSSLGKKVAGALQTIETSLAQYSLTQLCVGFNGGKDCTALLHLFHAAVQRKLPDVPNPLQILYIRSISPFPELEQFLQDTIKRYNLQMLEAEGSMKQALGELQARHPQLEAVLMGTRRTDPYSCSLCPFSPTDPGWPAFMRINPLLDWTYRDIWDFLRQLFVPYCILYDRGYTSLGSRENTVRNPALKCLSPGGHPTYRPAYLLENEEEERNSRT

SMILES: COc1ccc2c(c1)CCCN2C(=O)CCl [compound 2]
- isoTOP-ABPP reactivity Q8NFF5_C499 FLAD1 ([1]; 200 μM, insitu, 231): 6.2

SMILES: COc1ccc(C2CC(c3cccs3)=NN2C(=O)CCl)cc1 (centres unmarked) [compound 4]
- isoTOP-ABPP reactivity P05091_C319 ALDH2 ([2]; 100 μM in situ 231): 20.0

SMILES: O=C(CCl)N1CCN(S(=O)(=O)c2ccccc2F)CC1 [compound 10]
- isoTOP-ABPP ratio, cysteine Q8IU81_C363 [3]: 5.9

SMILES: Cn1cc(S(=O)(=O)N2CCOCC2)cc1C(=O)NC(=O)CCl [compound 11]
- isoTOP-ABPP ratio, cysteine Q8NFF5_C499 ([1]; 100 μM in situ 231): 16

SMILES: O=C(CCl)NC(=O)NC12CC3CC(CC(C3)C1)C2 [compound 12]
- isoTOP-ABPP ratio, cysteine P05091_C319 ([2]; 200 μM, insitu, 231): 20.0
- isoTOP-ABPP ratio, cysteine Q9C0I1_C152 [4]; 231: 20.0

SMILES: O=C(CCl)NCCc1c[nH]c2ccccc12 [compound 13]
- isoTOP-ABPP ratio, cysteine Q6QNY0_C168 ([5]; ramos): 1.2
- isoTOP-ABPP ratio, cysteine Q9C0I1_C152 ([4]; ramos): 6.5

SMILES: O=C(CCl)NC12CC3CC(CC(C3)C1)C2 [compound 21]
- isoTOP-ABPP ratio, cysteine Q8IZ73_C246 [6]; 231: 1.8
- isoTOP-ABPP ratio, cysteine Q9C0I1_C152 [4]; 231: 0.7

SMILES: COc1ccccc1OCCNC(=O)CCl [compound 28]
- isoTOP-ABPP ratio Q9BTE3_C325 [7]; 231: 1.0

SMILES: O=C(CCl)N1CCN(CC(=O)N2CCOCC2)CC1 [compound 29]
- isoTOP-ABPP ratio P05091_C319 ([2]; 200 μM, insitu, ramos): 10.5
- isoTOP-ABPP ratio Q6QNY0_C168 ([5]; ramos): 1.6
- isoTOP-ABPP ratio Q8NFF5_C499 ([1]; 200 μM, insitu, ramos): 3.4
- isoTOP-ABPP ratio Q9C0I1_C152 ([4]; ramos): 4.6

SMILES: C=CC(=O)N(Cc1cccnc1)c1cc(C(F)(F)F)cc(C(F)(F)F)c1 [compound 31]
- isoTOP-ABPP ratio Q8IU81_C363 [3]: 0.7
- isoTOP-ABPP ratio Q8IZ73_C246 [6]; 231: 0.4
- isoTOP-ABPP ratio Q8IZ73_C246 ([6]; ramos): 1.0
- isoTOP-ABPP ratio Q9BTE3_C325 [7]; 231: 1.9
- isoTOP-ABPP ratio Q9BTE3_C325 ([7]; ramos): 3.5

SMILES: C=CC(=O)Nc1cc(F)c(N2CCN(C(=O)OC(C)(C)C)CC2)c(F)c1 [compound 38]
- isoTOP-ABPP ratio Q6QNY0_C168 [5]; 231: 1.0
- isoTOP-ABPP ratio Q8IU81_C363 [3]: 1.3
- isoTOP-ABPP ratio Q8IZ73_C246 [6]; 231: 1.7
- isoTOP-ABPP ratio Q9BTE3_C325 [7]; 231: 2.2

SMILES: Cc1ccc(C=C(C#N)C(=O)NCCN2CCOCC2)cc1 [compound 41]
- isoTOP-ABPP ratio P05091_C319 ([2]; 200 μM, insitu, 231): 0.9
- isoTOP-ABPP ratio Q9BTE3_C325 [7]; 231: 0.6

SMILES: CC1CCc2ccccc2N1C(=O)CCl (centres unmarked) [compound 45]
- isoTOP-ABPP ratio P05091_C319 ([2]; 200 μM, insitu, 231): 20.0
- isoTOP-ABPP ratio Q8IU81_C363 [3]: 1.7
- isoTOP-ABPP ratio Q9BTE3_C325 [7]; 231: 20.0
